Laboratory results from US12194294B2, “Oral drug delivery devices and methods using iontophoresis” (The Regents of the University of California, priority 2019, dated 2025).
Entries after “also recorded” stand apart in the source; their conditions may differ. Where two headings read alike, the source gives them in different places.

Tests used:
[1] = system: non-diabetic rats; assay: In vivo intestinal iontophoresis using insulin mucoadhesive patches: blood glucose; parameters: species or system rat
Description: Insulin mucoadhesive patches were prepared as described in Banerjee, et al., “Intestinal Mucoadhesive Devices for Oral Delivery of Insulin,” Bioeng. Transl. Med. 1, 338-346 (2016). […] About 110 mg of the mixture was pressed at 3-ton pressure using a hydraulic press into a patch. The patches were then cut into 5×3 mm (length×breadth) sized rectangular smaller patches. One side of the patch was completely covered with aluminum foil using minimal amount of super glue placed at one corner of the foil. Wires with a small section of their protective insulation removed were then stuck on the aluminum foil using super glue. Care was taken not to cover the entire wire placed over the foil with super glue. The exposed wire sticking on to the patches were then taped with an electrical insulating tape to prevent any loss of current in vivo through exposed wire.
Intestinal iontophoresis was carried out using a 6 V battery connected to the intestine. A potentiometer and an ammeter were used in the electrical circuit to accurately control and measure the electric current. Given that the identified safe threshold for iontophoresis is 0.5 mA/cm^2, the electrical parameters were selected in order to perform the studies using a safe current density of 0.33 mA/cm^2 (Singh, et. al., “Transdermal drug delivery by passive diffusion and iontophoresis: a review,” Med Res Rev., 13(5):569-621 (1993)). For the experiment, the rats were fasted overnight but given free access to water. Prior to the start of intestinal iontophoresis, the rats were anesthetized, a portion of abdomen prepped for surgery and an incision was made in the area to expose the intestine. Experiments were conducted using sterile instruments and following good surgical practices. […] Thereafter current (45-50 μA) was allowed to flow for 1.5 minutes followed by 3.5 minutes of recovery time for 1 h, amounting to a total 18 min of iontophoresis. After 1 h, the patches were left in place but the wires were disconnected from the battery and cut close to the inserted patches. The intestinal incisions with the patches left in place were stitched, the intestine put back into the abdomen and the muscle and skin sutured. Blood glucose was determined at the start of the study and at every 0.5 h till the end of study at 3 h. The rats were kept anesthetized until the end of experiment. Afterwards, the animals were euthanized and the intestinal sections in and around the patches were dissected for further histological examination to determine morphological changes, if any, due to iontophoresis.
Control experiments with no electric current were conducted similarly.
About 110 mg of the mixture was pressed at 3-ton pressure using a hydraulic press into a patch. The patches were then cut into 5×3 mm (length×breadth) sized rectangular smaller patches. One side of the patch was completely covered with aluminum foil using minimal amount of super glue placed at one corner of the foil. Wires with a small section of their protective insulation removed were then stuck on the aluminum foil using super glue. Care was taken not to cover the entire wire placed over the foil with super glue. The exposed wire sticking on to the patches were then taped with an electrical insulating tape to prevent any loss of current in vivo through exposed wire.
The circuit for in vivo experiments was set up as illustrated in FIG. 3. Intestinal iontophoresis was carried out using a 6 V battery connected to the intestine. A potentiometer and an ammeter were used in the electrical circuit to accurately control and measure the electric current. Given that the identified safe threshold for iontophoresis is 0.5 mA/cm2, the electrical parameters were selected in order to perform the studies using a safe current density of 0.33 mA/cm2 [8]. For the experiment, the rats were fasted overnight but given free access to water. […]

[2] = system: Caco-2 cells; assay: TEER measurement of tight junction integrity in Caco-2 monolayers during FITC-insulin transport study; format: cell-based, human; settings: for TEER decrease: within 15 min
Description: Transport experiments were carried out in triplicates and at least 3 transwells were used per trial for each group. Before the start of the experiment, the existing medium in the transwell was replaced with phenol red, FBS and P/S free DMEM in both the apical (200 μl) and basolateral side (600 μl) and the cells were incubated for 30 min. […] This was performed at 0.25, 0.5, 1, 2, 3 and 5 h. A 50 μA electric current was applied to the cells during the first hour of the study for a period of 10 min, followed by a 10 min recovery period and this was repeated another two times. At the end of 1 h (total 30 min iontophoresis), the transwell plates were kept inside an incubator at 37° C., 5% CO2 and only taken out to remove 100 μl aliquots from the basolateral side followed by replacement with same volume fresh medium at the aforementioned time periods. […] TEER was measured at every time point when aliquots were withdrawn from the transwells.

[3] = system: Caco-2 monolayers; settings: for FITC-insulin transported across the cells: end of 5 h; for Papp of FITC-insulin across the cells: in 5 h
Description: (§1) Caco-2 human intestinal epithelial cells (passages #5-10) were cultured in DMEM containing 10% v/v FBS and 1% v/v P/S and seeded in 24 well plate transwells at a density of 2×10^5 cells/ml. 200 μl DMEM with cells was placed in apical side while 600 μl cell free DMEM was placed in the basolateral side. The cells were allowed to grow for a period of 18-21 days and medium replaced with fresh DMEM every other day.
(§2) To maintain sterile conditions, all in vitro experiments including circuit set up were done under aseptic conditions in a biosafety cabinet. A 6 V battery was used to supply electrical current to transwells containing Caco-2 monolayer. The higher potential of the battery was connected to the basolateral side of the transwell while the lower potential of the battery connected to the apical side while taking care not to touch the transwell membranes with Caco-2 cell monolayer. The current applied to the cell was monitored by an ammeter and its value was adjusted to 50 μA using a potentiometer. Three different branches, each attached to an ammeter, potentiometer and transwell were connected in parallel across the battery to enable three different measurements at a time.
Transport experiments were carried out in triplicates and at least 3 transwells were used per trial for each group. Before the start of the experiment, the existing medium in the transwell was replaced with phenol red, FBS and P/S free DMEM in both the apical (200 μl) and basolateral side (600 μl) and the cells were incubated for 30 minutes. […] This was performed at 0.25, 0.5, 1, 2, 3 and 5 h. A 50 μA electrical current was applied to the cells during the first hour of the study for a period of 10 min, followed by 10 min recovery period and this was repeated another two times. At the end of 1 h (total 30 minutes iontophoresis), the transwell plates were kept inside an incubator at 37° C., 5% CO2 and only taken out to remove 100 μl aliquots from the basolateral side followed by replacement with same volume fresh medium at the aforementioned time periods. […] TEER was measured at every time point when aliquots were withdrawn from the transwells. Apparent permeability coefficient (Papp) was calculated using the equation (Brown, et al., “Dermal and transdermal drug delivery systems: current and future prospects,” Drug Deliv. 13(3):175-87 (2006)):
The transport enhancement ratio (ER) was calculated using the equation (Brown, et al., 2006): […]
as §1
as §2, with “the battery was connected to” for “the battery connected to”, “a potentiometer. […]” for “a potentiometer. Three different branches, each attached to an ammeter, potentiometer and transwell were connected in parallel across the battery to enable three different measurements at a time.”

[4] = system: Caco-2 cells; assay: Confocal microscopy of FITC-insulin uptake by Caco-2 cells; format: cell-based, human; settings: cells exposed to electric current compared to control wells
Description: On the next day, the transwells were washed with HBSS and the membrane cut out and placed in glass slides. Mounting media with DAPI was added to the membranes and covered with glass slides. Confocal imaging was performed using Olympus Fluoview 1000 Spectral Confocal instrument at 60× magnification.
On the next day, the transwells were washed with HBSS and the membrane cut out and placed in glass slides. Mounting media with DAPI was added to the membranes and covered with glass slides. Confocal imaging was performed using Olympus Fluoview 1000™ Spectral Confocal instrument at 60× magnification.

[5] = 1 U/kg, subcutaneously injected, 1.5 h
[6] = 1 U/kg, subcutaneously injected, 3 h
[7] = control (no current) wells, 2 h
[8] = control (no current) wells, 3 h

Substance: insulin solution: insulin solution injected intra-intestinally (50 U/kg) or subcutaneously (1 U/kg) as comparison
- blood glucose, % of initial levels [1, 5]: 57.9±4.1%
- maximum drop in blood glucose levels [1, 5]: 42%
- blood glucose drop after recovery [1, 6]: about 17%
- blood glucose, % of initial levels [1, 6]: 83.3±2.6%
- drop in blood glucose levels with time ([1]; 50 U/kg, intra-intestinally injected): did not show any drop

Substance: Human Insulin
- difference in TEER between control and electric current group ([2]; at the end at 5 hours): no significant difference
- TEER drop of initial levels ([2]; electric current, 2 h): 35%
- drop in blood glucose levels ([1]; 50 U/kg patch in intestine, 45-50 μA current, 3 h): 63%
- hypoglycemia ([1]; patches with iontophoresis, rats, up to 3 h): severely hypoglycemic

Substance: fluorescein isothiocyanate (FITC)-insulin [FITC-insulin]
- FITC-insulin transported across the cells ([3]; control group (no current)): about 5.5 μg
- FITC-insulin transported across the cells ([3]; electric current applied (50 μA)): approximately 14.1 μg
- insulin transport across the cells, electric current vs control ([3]; from 2 hours onwards): significantly higher
- Papp of FITC-insulin across the cells ([3]; without electricity): 0.99 ×10⁻⁶ cm/s
- Papp of FITC-insulin across the cells ([3]; without electricity (Example 3)): 0.99 ×10⁻⁶ cm/s
- TEER reduction of initial levels [2, 7]: around 9%
- TEER, % of initial levels [2, 7]: 91.2±1.1%
- TEER reduction of initial levels [2, 8]: ~4%
- TEER, % of initial levels [2, 8]: 95.6±6.5%
- TEER decrease ([2]; control group): no specific decrease
- TEER drop of initial levels ([2]; electric current, 2 h): 35%
- TEER, % of initial levels ([2]; electric current, 2 h): 65.7±3.8%
- TEER decrease ([2]; electric current): 10%
- uptake of FITC-insulin by cells (confocal images) [4]: presence of higher FITC-insulin; also recorded: higher uptake
- uptake of FITC-insulin by cells (confocal images) ([4]; listed as FITCmsulin): higher uptake
